Key:
[1] = ligand solubility in assay buffer; assay type: physicochemical; conditions: for solubility: assay buffer with 5% or 10% DMSO; for highest achievable ligand concentration: assay buffer, final DMSO concentration 10%
[2] = target: FimHFL (full length FimH) (Escherichia coli, UniProt P08191); test: competitive fluorescence polarization assay; assay type: binding
[3] = target: T1, FimHLD (isolated lectin domain of FimH) (Escherichia coli, UniProt P08191); test: competitive fluorescence polarization assay; assay type: binding; conditions: for factor of affinity improvement from 1: aglycone optimization
T1 sequence (P08191 22-179): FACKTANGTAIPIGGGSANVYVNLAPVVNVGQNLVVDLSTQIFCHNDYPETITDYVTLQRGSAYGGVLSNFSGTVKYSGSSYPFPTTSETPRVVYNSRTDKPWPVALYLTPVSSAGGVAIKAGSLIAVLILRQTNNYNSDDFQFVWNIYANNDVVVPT

FimHLD = FimHLD (Escherichia coli, UniProt P08191); test: isothermal titration calorimetry; assay type: binding; conditions: ITC KD versus FPA KD
FimHLD, sequence (P08191 22-179): as above

[4] = target: T1, FimHLD (isolated lectin domain of FimH); conditions: read-out: KD FimHLD; competitive FPA; mannosides; ref [18] and [19]; cited from earlier work

FimHFL (full length FimH), sequence (P08191 22-300, other chains not shown): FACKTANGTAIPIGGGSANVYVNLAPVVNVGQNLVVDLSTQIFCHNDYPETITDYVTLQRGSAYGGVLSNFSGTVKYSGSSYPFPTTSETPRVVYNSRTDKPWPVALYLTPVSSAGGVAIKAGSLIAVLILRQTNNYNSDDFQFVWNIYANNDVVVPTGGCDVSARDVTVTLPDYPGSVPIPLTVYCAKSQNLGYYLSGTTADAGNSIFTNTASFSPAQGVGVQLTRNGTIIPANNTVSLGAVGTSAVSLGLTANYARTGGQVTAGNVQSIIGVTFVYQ

## N#Cc1ccc(-c2ccc(CO[C@H]3CO[C@H](CO)[C@@H](O)[C@H](O)[C@@H]3O)cc2)cc1 [7a, 2-O-(4-[4-cyanophenyl]benzyl)-1,6-anhydro-D-glycero-D-galactitol]
[1]
  solubility: insufficient solubility
[2]; para-cyano group on outer aromatic ring versus unsubstituted 7c
  increase in binding affinity to FimHFL: approximately 2 fold

## N#Cc1ccc(-c2ccc(O[C@H]3CO[C@H](CO)[C@@H](O)[C@H](O)[C@@H]3O)c(Cl)c2)cc1 [8a, 2-O-[4-(4’-cyanophenyl)-2-chlorophenyl]-1,6-anhydro-D-glycero-D-galactitol]
[1]
  solubility: low solubility
  highest achievable ligand concentration: ≤ 500 µM
[3]; FPA, ortho-chloro modification
  factor of affinity improvement compared to 6: 2.6
[2]; FimHFL, FPA, versus 6
  factor of affinity gain by ortho-chloro modification: 6

## OC[C@H]1OC[C@H](Oc2ccc(-c3ccccc3)cc2Cl)[C@@H](O)[C@@H](O)[C@@H]1O [8c, 2-O-[4-phenyl-2-chlorophenyl]-1,6-anhydro-D-glycero-D-galactitol]
[1]
  solubility: low solubility
  highest achievable ligand concentration: ≤ 500 µM
[3]; FPA
  factor of affinity improvement from 1: 32

## N#Cc1ccc(-c2ccc(CO[C@H]3CO[C@H](CO)[C@@H](O)[C@H](O)[C@@H]3O)c(Cl)c2)cc1 [9a, 2-O-(2-chloro-4-[4-cyanophenyl]benzyl)-1,6-anhydro-D-glycero-D-galactitol]
[3]; FPA
  factor of affinity improvement from 1: 1.5

## OC[C@H]1OC[C@H](OCc2ccccc2)[C@@H](O)[C@@H](O)[C@@H]1O [compound 4, 2-O-benzyl-1,6-anhydro-D-glycero-D-galactitol]
[3]; FPA
  factor of loss in binding affinity compared to phenylpropyl analog 5: 10

## N#Cc1ccc(-c2ccc(O[C@H]3CO[C@H](CO)[C@@H](O)[C@H](O)[C@@H]3O)cc2)cc1 [compound 6, 2-O-(4-[4-cyanophenyl]phenyl)-1,6-anhydro-D-glycero-D-galactitol]
[1]
  solubility: low solubility
  highest achievable ligand concentration: ≤ 500 µM
[3]; FPA
  factor of affinity increase compared to 7a: 6
FimHLD
  ITC binding affinity lower than recorded in the FPA assay: approx. 3 fold

## N#Cc1ccc(-c2ccc(O[C@H]3O[C@H](CO)[C@@H](O)[C@H](O)[C@@H]3O)cc2)cc1 [compound 27]
[4]
  Kd: 2 nM

## NC(=O)c1ccc(-c2ccc(O[C@H]3O[C@H](CO)[C@@H](O)[C@H](O)[C@@H]3O)cc2)cc1 [compound 28]
[4]
  Kd: 2.8 nM

## N#Cc1ccc(-c2ccc(O[C@H]3O[C@H](CO)[C@@H](O)[C@H](O)[C@@H]3O)c(Cl)c2)cc1 [compound 30, reference compound]
[3]; mannoside ligands, from literature KD values
  factor of affinity improvement comparing 2 to 30: 56.6
